From PubChem BioAssay (NCI)
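Five compound concentrations were applied to cells in 96-well plates for 48 hours; endpoints were derived by simple linear interpolation of the resulting dose-response curve. GI50 is the concentration that inhibits growth by half. TGI denotes the concentration required for complete inhibition of growth.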

Assays:
Test in all cases: growth of human tumour cells (NCI), 48 h
786-0 renal = system: 786-0 renal
A498 renal = system: A498 renal
A549 NSCLC = system: A549 NSCLC
ACHN renal = system: ACHN renal
BT-549 breast = system: BT-549 breast
CAKI-1 renal = system: CAKI-1 renal
CCRF-CEM leukemia = system: CCRF-CEM leukemia
COLO 205 colon = system: COLO 205 colon
DU-145 prostate = system: DU-145 prostate
EKVX NSCLC = system: EKVX NSCLC
HCC-2998 colon = system: HCC-2998 colon
HCT-116 colon = system: HCT-116 colon
HCT-15 colon = system: HCT-15 colon
HOP-62 NSCLC = system: HOP-62 NSCLC
HOP-92 NSCLC = system: HOP-92 NSCLC
HS 578T breast = system: HS 578T breast
HT29 colon = system: HT29 colon
IGROV1 ovarian = system: IGROV1 ovarian
K-562 leukemia = system: K-562 leukemia
KM12 colon = system: KM12 colon
LOX IMVI melanoma = system: LOX IMVI melanoma
M14 melanoma = system: M14 melanoma
MCF7 breast = system: MCF7 breast
MDA-MB-231 breast = system: MDA-MB-231 breast
MDA-MB-435 = system: MDA-MB-435
MOLT-4 leukemia = system: MOLT-4 leukemia
NCI-H226 lung = system: NCI-H226 lung
NCI-H23 lung = system: NCI-H23 lung
NCI-H460 lung = system: NCI-H460 lung
NCI-H522 lung = system: NCI-H522 lung
NCI/ADR-RES ovarian = system: NCI/ADR-RES ovarian
OVCAR-3 ovarian = system: OVCAR-3 ovarian
OVCAR-4 ovarian = system: OVCAR-4 ovarian
OVCAR-5 ovarian = system: OVCAR-5 ovarian
OVCAR-8 ovarian = system: OVCAR-8 ovarian
PC-3 prostate = system: PC-3 prostate
RPMI-8226 leukemia = system: RPMI-8226 leukemia
RXF 393 renal = system: RXF 393 renal
SF-268 CNS = system: SF-268 CNS
SF-295 CNS = system: SF-295 CNS
SF-539 CNS = system: SF-539 CNS
SK-MEL-2 melanoma = system: SK-MEL-2 melanoma
SK-MEL-28 melanoma = system: SK-MEL-28 melanoma
SK-MEL-5 melanoma = system: SK-MEL-5 melanoma
SK-OV-3 ovarian = system: SK-OV-3 ovarian
SN12C renal = system: SN12C renal
SNB-19 CNS = system: SNB-19 CNS
SNB-75 CNS = system: SNB-75 CNS
SW-620 colon = system: SW-620 colon
T-47D breast = system: T-47D breast
TK-10 renal = system: TK-10 renal
U251 CNS = system: U251 CNS
UACC-257 melanoma = system: UACC-257 melanoma
UACC-62 melanoma = system: UACC-62 melanoma
UO-31 renal = system: UO-31 renal

## C=C(C(=O)OC)[C@@H]1C[C@@H](O)[C@]2(C)CC/C=C(\C)CCC[C@H](C)[C@H](O)C1O2
786-0 renal
  GI50: > 100 µM
  TGI: > 100 µM
A498 renal
  GI50: 65.9 µM
  TGI: > 100 µM
A549 NSCLC
  GI50: 61.3 µM
  TGI: > 100 µM
ACHN renal
  GI50: 57.5 µM
  TGI: > 100 µM
BT-549 breast
  GI50: 29.5 µM
  TGI: 79.1 µM
CAKI-1 renal
  GI50: 45.5 µM
  TGI: > 100 µM
CCRF-CEM leukemia
  GI50: 24.2 µM
  TGI: 46 µM
COLO 205 colon
  GI50: 36.1 µM
  TGI: > 100 µM
DU-145 prostate
  GI50: 45.5 µM
  TGI: > 100 µM
EKVX NSCLC
  GI50: 55.9 µM
  TGI: > 100 µM
HCC-2998 colon
  GI50: 73 µM
  TGI: > 100 µM
HCT-116 colon
  GI50: 21.1 µM
  TGI: 58 µM
HCT-15 colon
  GI50: 59 µM
  TGI: > 100 µM
HOP-62 NSCLC
  GI50: > 100 µM
  TGI: > 100 µM
HOP-92 NSCLC
  GI50: 3.71 µM
  TGI: 45.4 µM
HS 578T breast
  GI50: 32.8 µM
  TGI: > 100 µM
HT29 colon
  GI50: 53 µM
  TGI: > 100 µM
IGROV1 ovarian
  GI50: 22.7 µM
  TGI: 73.5 µM
K-562 leukemia
  GI50: 22.2 µM
  TGI: 62.2 µM
KM12 colon
  GI50: 41 µM
  TGI: > 100 µM
LOX IMVI melanoma
  GI50: 32.8 µM
  TGI: > 100 µM
M14 melanoma
  GI50: 44 µM
  TGI: > 100 µM
MCF7 breast
  GI50: 31.7 µM
  TGI: > 100 µM
MDA-MB-231 breast
  GI50: 58.5 µM
  TGI: > 100 µM
MDA-MB-435
  GI50: 37.8 µM
  TGI: > 100 µM
MOLT-4 leukemia
  GI50: 18.7 µM
  TGI: 46.5 µM
NCI-H226 lung
  GI50: 86.7 µM
  TGI: > 100 µM
NCI-H23 lung
  GI50: 80.6 µM
  TGI: > 100 µM
NCI-H460 lung
  GI50: 75.5 µM
  TGI: > 100 µM
NCI-H522 lung
  GI50: 26.1 µM
  TGI: > 100 µM
NCI/ADR-RES ovarian
  GI50: 83.7 µM
  TGI: > 100 µM
OVCAR-3 ovarian
  GI50: 31.3 µM
  TGI: 92.7 µM
OVCAR-4 ovarian
  GI50: 78.8 µM
  TGI: > 100 µM
OVCAR-5 ovarian
  GI50: > 100 µM
  TGI: > 100 µM
OVCAR-8 ovarian
  GI50: > 100 µM
  TGI: > 100 µM
PC-3 prostate
  GI50: 30.9 µM
  TGI: > 100 µM
RPMI-8226 leukemia
  GI50: 27.6 µM
  TGI: 59 µM
RXF 393 renal
  GI50: 53.3 µM
  TGI: > 100 µM
SF-268 CNS
  GI50: 65 µM
  TGI: > 100 µM
SF-295 CNS
  GI50: 83.8 µM
  TGI: > 100 µM
SF-539 CNS
  GI50: > 100 µM
  TGI: > 100 µM
SK-MEL-2 melanoma
  GI50: 48.5 µM
  TGI: > 100 µM
SK-MEL-28 melanoma
  GI50: > 100 µM
  TGI: > 100 µM
SK-MEL-5 melanoma
  GI50: 26.3 µM
  TGI: 79.5 µM
SK-OV-3 ovarian
  GI50: > 100 µM
  TGI: > 100 µM
SN12C renal
  GI50: 77.9 µM
  TGI: > 100 µM
SNB-19 CNS
  GI50: 79.3 µM
  TGI: > 100 µM
SNB-75 CNS
  GI50: > 100 µM
  TGI: > 100 µM
SW-620 colon
  GI50: 42.2 µM
  TGI: > 100 µM
T-47D breast
  GI50: 52.8 µM
  TGI: > 100 µM
TK-10 renal
  GI50: 19.6 µM
  TGI: 48.8 µM
U251 CNS
  GI50: 51.4 µM
  TGI: > 100 µM
UACC-257 melanoma
  GI50: > 100 µM
  TGI: > 100 µM
UACC-62 melanoma
  GI50: 40.5 µM
  TGI: > 100 µM
UO-31 renal
  GI50: 52.8 µM
  TGI: > 100 µM
